target: T1, FLuc-C-HiBiT (Photinus pyralis, UniProt P08659); assay: biochemical; settings: enzyme activity, 10 uM ATP; read-out: IC50 or SDR50 (mM) / FLuc E
T1 construct: firefly luciferase with C-terminal HiBiT tag, E. coli expressed
Protocol: The enzyme activity of FLuc-N-HiBiT, FLuc-C-HiBiT, and FLuc-C-NLuc was measured similar to P. pyralis firefly luciferase (FLuc) as previously described. […] Compounds and controls were added to each plate as described in Supplementary Data 8 with a Hornet pintool system (Wako Automation). Compounds were incubated with respective enzymes for 30–60 min at room temperature protected from light and covered by solid metal lid to prevent evaporation. […] Luciferin was incubated with FLuc enzyme for 5 min before FLuc activity was then measured on a ViewLux CCD imager (PerkinElmer), with exposure times up to ten seconds with medium to high gain settings. Data were normalized to average no enzyme control as 100% enzyme inhibition and average DMSO neutral control. See Supplementary Table 4 for additional details. As a proof-of-concept target, we appended the sensor protein or corresponding α-peptide to either the N- or C-terminus of the target protein firefly luciferase (FLuc), an ATP cofactor-dependent monooxygenase (Supplementary Fig. 1a) having a broad, well-characterized and accessible ligand pharmacology. For initial characterization of the SDR concept, either NLuc or the 11 amino acid HiBiT tag (α-peptide) and complementary 18 kDa LgBiT subunit (ω-fragment), which self-assemble to reconstitute functional NLuc enzyme[24] were tested. In contrast to the ATP-dependent bioluminescent FLuc enzyme, NLuc generates a bright bioluminescence in an ATP-independent manner from the direct oxidation of furimazine (Supplementary Fig. 1b). […] Next, FLuc-C-NLuc, FLuc-N-HiBiT or FLuc-C-HiBiT were assayed with the same inhibitor in an SDR assay format by monitoring bioluminescence from NLuc or its reconstitution by α-complementation with LgBiT. Measurements of NLuc activity were made either in the absence or presence of the FLuc ATP cofactor, as NLuc bioluminescence is ATP-independent.

T1 sequence (P08659 whole entry, looked up): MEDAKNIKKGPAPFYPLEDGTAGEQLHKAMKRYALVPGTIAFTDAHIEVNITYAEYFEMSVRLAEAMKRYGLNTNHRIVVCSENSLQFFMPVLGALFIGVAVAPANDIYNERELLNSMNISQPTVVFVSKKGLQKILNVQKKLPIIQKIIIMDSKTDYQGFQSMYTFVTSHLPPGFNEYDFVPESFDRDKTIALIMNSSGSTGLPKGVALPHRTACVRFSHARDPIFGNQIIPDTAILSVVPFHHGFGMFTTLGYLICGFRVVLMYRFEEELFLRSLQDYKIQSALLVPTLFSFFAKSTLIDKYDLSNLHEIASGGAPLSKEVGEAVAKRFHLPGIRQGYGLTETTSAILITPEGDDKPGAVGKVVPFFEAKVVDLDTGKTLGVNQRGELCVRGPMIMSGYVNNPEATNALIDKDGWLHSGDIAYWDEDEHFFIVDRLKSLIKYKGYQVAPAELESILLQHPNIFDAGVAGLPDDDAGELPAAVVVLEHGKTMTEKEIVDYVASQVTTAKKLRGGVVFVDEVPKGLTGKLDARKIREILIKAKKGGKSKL

| Compound | IC50 [µM] |
| --- | --- |
| COc1ccc(C(=O)Nc2cc(C)c(O)c(-c3nc4ccccc4s3)c2)cc1OC [NCGC00103306-01] | 1.4 |
| CCOc1ccc(C(=O)Nc2cc(-c3nc4cc(OC)ccc4o3)ccc2C)cc1[N+](=O)[O-] [NCGC00103318-01] | 7.85 |
| COc1cc(C(=O)Nc2cc(C)c(O)c(-c3nc4ccccc4s3)c2)cc(OC)c1OC [NCGC00103336-02] | > 30 |
| Cc1ccc(NCc2nc3ccccc3n2CCOc2ccccc2)cc1 [NCGC00104457-01] | 11.1 |
| CCc1ccccc1NC(=O)c1nnn(-c2ccc(F)cc2)c1C [NCGC00104938-01] | 11.1 |
| CC(=O)NCCNC(=O)c1ccc2c(=O)n(CCc3ccccc3)c(=O)[nH]c2c1 [NCGC00104963-01] | 5.56 |
| Cc1ccc(Cl)cc1-n1nnc(-c2nsc(NC(=O)c3ccccc3Cl)n2)c1C [NCGC00105211-01] | > 30 |
| O=C(c1cc(-c2ccccc2O)on1)N1CCCCC1 [NCGC00105578-01] | 9.89 |
| O=C(Nc1cccnc1)c1cc(-c2ccc(Cl)cc2)on1 [NCGC00105781-01] | 2.48 |
| Cc1ccc(Nc2c(-c3ccc(N(C)C)cc3)nc3[nH]cnn23)cc1 [NCGC00105887-01] | 12.4 |
| CN(C)c1ccc(-c2nc3ccccn3c2Nc2ccc3c(c2)OCCO3)cc1 [NCGC00106568-01] | 11.1 |
| Oc1ccc(-c2nc3ccccn3c2Nc2ccc3c(c2)OCCO3)cc1 [NCGC00106600-01] | 17.6 |
| COc1ccc(NC(=O)Nc2nnc(C)s2)cc1 [NCGC00106652-01] | 11.1 |
| Cc1ccn2c(Nc3ccc(C(C)C)cc3)c(-c3cccs3)nc2c1 [NCGC00106676-01] | 11.1 |
| Cc1cccc(NC(=O)Nc2ccc(F)cc2)n1 [NCGC00106833-01] | 12.4 |
| Cc1ccc(C(=O)O)cc1Nc1nc2ccccc2n2nnnc12 [NCGC00106886-01] | 12.4 |
| CCOc1cccc(NC(=O)CSc2ncc(-c3ccccc3)[nH]2)c1 [NCGC00106968-01] | > 30 |
| Cc1ccc(NC(=O)c2ncn(-c3ccccc3)n2)cc1Cl [NCGC00107303-01] | 4.95 |
| CCc1cccc(NCc2ccccc2-c2nnc(-c3ccccc3Cl)o2)c1 [NCGC00107400-01] | > 30 |
| Fc1ccc(NCc2ccccc2-c2nnc(-c3ccccc3Cl)o2)cc1Cl [NCGC00107402-01] | 15.7 |
| CC(=O)c1cccc(NC(=O)c2nc3ccccc3n(C)c2=O)c1 [NCGC00107713-01] | 3.13 |
| CCn1c(=O)c(C(=O)Nc2ccc(C(C)=O)cc2)nc2ccccc21 [NCGC00107725-01] | 12.4 |
| COc1ccc(Nc2cc(C(=O)NC3CCC(C)CC3)c3ccccc3n2)cc1OC (centres unmarked) [NCGC00108132-01] | > 30 |
| CCOC(=O)c1cc(-c2ccccc2)nn1Cc1ccccc1 [NCGC00108381-01] | > 30 |
| COc1ccccc1-c1cc2nc(C)c(CCC(=O)O)c(C)n2n1 [NCGC00108411-01] | 12.4 |
| Cc1ccc(N2C(=O)c3[nH]nc(C)c3C2c2ccc(Cl)cc2)cc1 (centres unmarked) [NCGC00108483-01] | 12.4 |

| Compound | IC50 [µM] |
| --- | --- |
| CCc1ccc(-c2nc(CSCC(=O)NCc3ccc(C)cc3)c(C)o2)cc1 [NCGC00109429-01] | 14 |
| Cc1ccc(NC(=O)CCc2c(C)nc3cc(-c4ccccc4)nn3c2C)cc1F [NCGC00109926-01] | 11.1 |
| CCOc1ccc(NC(=O)CCc2c(C)nc3cc(-c4ccc(Cl)cc4)nn3c2C)cc1 [NCGC00110024-01] | 2.79 |
| CC(=O)c1ccc(NC(=O)CCc2c(C)nc3cc(-c4ccc(Cl)cc4)nn3c2C)cc1 [NCGC00110026-01] | 7.85 |
| COC(=O)c1ccccc1NC(=O)CCc1c(C)nc2cc(-c3ccc(Cl)cc3)nn2c1C [NCGC00110028-01] | 9.89 |
| CCOC(=O)c1cccc(NC(=O)CCc2c(C)nc3cc(-c4ccc(Cl)cc4)nn3c2C)c1 [NCGC00110030-01] | 8.81 |
| Cc1nc2cc(-c3cccc(F)c3)nn2c(C)c1CCC(=O)NC1CCCCC1 [NCGC00110095-01] | 8.81 |
| CCOC(=O)c1ccc(NC(=O)CSc2nnc(CNC(=O)c3ccc(OC)cc3)n2CC)cc1 [NCGC00110413-01] | 12.4 |
| CCOc1ccc(-c2cc(CCCC(=O)NCCc3ccc(OC)c(OC)c3)no2)cc1 [NCGC00110832-01] | 9.89 |
| CCOc1ccc(-c2cc(CCCC(=O)NCCc3ccc(OCC)c(OCC)c3)no2)cc1 [NCGC00110850-01] | 3.51 |
| CCOc1ccc(-c2cc(CCCC(=O)NCCc3ccc(SC)cc3)no2)cc1 [NCGC00110854-01] | 3.13 |
| COc1ccc(C)cc1NC(=O)c1ccc2c(Cl)c3c(nc2c1)CCC3 [NCGC00111420-01] | 1.11 |
| COc1cccc(C(=O)Nc2cccc(OCc3cc(=O)n4c5c(sc4n3)CCCC5)c2)c1 [NCGC00111495-01] | 9.89 |
| O=C(Nc1c(C(=O)Nc2ccc(F)cc2)oc2ccccc12)c1cc2ccccc2o1 [NCGC00111604-01] | 7.85 |
| COc1ccc(CNC(=O)c2ccc3c(c2)N=C(C)c2c(C)ccc(C)c2S3)cc1 [NCGC00112026-02] | > 30 |
| CCc1ccc2nc(N3CCC(C(=O)O)CC3)sc2c1 [NCGC00112332-01] | 0.0351 |
| Cc1cc(F)ccc1NC(=O)c1csc2c1CCC(C)C2 (centres unmarked) [NCGC00112512-01] | 2.79 |
| COc1ccc(CCNc2nc3ccccc3c3nc(-c4cccc(C)c4)nn23)cc1OC [NCGC00112564-01] | 11.1 |
| COc1cccc(CNc2nc3ccccc3c3nc(-c4cccc(C)c4)nn23)c1 [NCGC00112594-01] | 7.85 |
| CCOC(=O)c1ccc(NC(=O)c2csc3c2CCCC3)cc1 [NCGC00112858-01] | 15.7 |
| COc1ccc(CCNC(=O)C2CCCN(c3nc4c(C)cc(C)cc4s3)C2)cc1OC (centres unmarked) [NCGC00113075-01] | 5.56 |
| CCOc1cc2sc(N3CCC(C(=O)Nc4ccc(C(C)C)cc4)CC3)nc2cc1Br [NCGC00113423-01] | 7 |
| Cc1c(C(=O)NCc2cccc(Br)c2)oc2ccc3c(c12)C(=O)CC(C)(C)O3 [NCGC00113428-01] | 11.1 |
| O=C(c1ccc(CSc2nc3ccncc3n2Cc2ccccc2F)cc1)N1CCCCC1 [NCGC00113496-01] | 14 |
| Cc1cccc(CNC(=O)Cc2csc3ccccc23)c1 [NCGC00113581-01] | > 30 |
| COc1ccccc1CNC(=O)c1ccc2nc(N3CCCCC3)sc2c1 [NCGC00113612-01] | > 30 |

| Compound | IC50 [µM] |
| --- | --- |
| CCOC(=O)c1ccc(NC(=O)c2nsc3ccccc23)cc1 [NCGC00113675-01] | 3.51 |
| COc1ccc(CNC(=O)Cn2cccc2C(=O)c2ccccc2C)cc1 [NCGC00113808-01] | > 30 |
| O=C(Nc1ccccc1F)c1ccc(-c2ccccc2)s1 [NCGC00114318-01] | 2.48 |
| Cc1cccc(NC(=O)c2ccc(-c3ccccc3)s2)c1 [NCGC00114320-01] | 2.79 |
| Cc1ccc(NC(=O)c2ccc3snnc3c2)cc1C [NCGC00114783-01] | 8.81 |
| C#CCn1c(/C=C/c2ccc(Cl)cc2)nc2ccccc21 [NCGC00114864-01] | 0.624 |
| COc1ccc(-c2nc3c4cnn(-c5ccccc5F)c4ncn3n2)cc1 [NCGC00115088-01] | 0.785 |
| COc1cccc(-c2noc(COc3ccccc3Cl)n2)c1 [NCGC00115123-01] | 11.1 |
| Brc1ccccc1-n1ncc2c1ncn1nc(Cc3ccccc3)nc21 [NCGC00115124-01] | > 30 |
| COc1ccc(C(=O)Nc2noc3ccccc23)cc1 [NCGC00115156-01] | 0.881 |
| COc1cccc(NC(=O)CCc2nc(-c3ccc(C(C)(C)C)cc3)no2)c1 [NCGC00115609-01] | 7 |
| O=C(Nc1onc2c1CCCC2)c1ccccc1 [NCGC00115884-01] | 11.1 |
| Cc1ccc(C(=O)Nc2onc3c2CCCC3)cc1 [NCGC00115902-01] | 0.989 |
| COc1ccc(C(=O)Nc2onc3c2CCCC3)cc1 [NCGC00115906-01] | 1.97 |
| COc1ccccc1C(=O)Nc1onc2c1CCCC2 [NCGC00115908-01] | 9.89 |
| CCOc1ccc(C(=O)Nc2onc3c2CCCC3)cc1 [NCGC00115912-01] | 1.97 |
| CC(C)COc1ccc(C(=O)Nc2onc3c2CCCC3)cc1 [NCGC00115916-01] | 1.97 |
| CC(=O)Nc1ccc(NC(=O)CCCc2nc(-c3ccc(C(C)(C)C)cc3)no2)cc1 [NCGC00116112-01] | 4.95 |
| COc1cccc(OCc2nc3ccccc3n2Cc2ccccc2)c1 [NCGC00116123-01] | > 30 |
| CC(=O)c1nn(-c2ccc(OC(F)(F)F)cc2)nc1Nc1ccccc1 [NCGC00116600-01] | 0.7 |
| CC(=O)c1cccc(Nc2nn(-c3ccc(OC(F)(F)F)cc3)nc2C(C)=O)c1 [NCGC00116630-01] | 4.42 |
| Cc1ccc(C2=Nc3cc(Cl)ccc3NC(c3ccccc3)=N2)cc1 [NCGC00116648-01] | > 30 |
| CCOc1ccc(-n2nc(CO)c(C(=O)NCc3ccccn3)n2)cc1 [NCGC00117131-01] | 11.1 |
| CCOc1ccc(-n2nc(CO)c(C(=O)NCc3cccc(OC)c3)n2)cc1 [NCGC00117153-01] | 11.1 |
| CCc1ccc(-n2nc(CO)c(C(=O)NC)n2)cc1 [NCGC00117187-01] | 17.6 |
